Structures can show the parent of a compound that is named as a salt.
molecular target: T1, Human Polθ polymerase domain (aa1820-2590) (Homo sapiens, UniProt O75417); experiment: Polθ Polymerase Domain WT KI Assay (PicoGreen); type: biochemical; details: 100 nM DNA substrate, 0.156 nM Polθ, initial rates vs inhibitor concentration
T1 construct: Human Polθ polymerase domain (aa1820-2590) was expressed in E. Coli; made in house; host or cells: E. coli
T1 sequence (O75417 1820-2590): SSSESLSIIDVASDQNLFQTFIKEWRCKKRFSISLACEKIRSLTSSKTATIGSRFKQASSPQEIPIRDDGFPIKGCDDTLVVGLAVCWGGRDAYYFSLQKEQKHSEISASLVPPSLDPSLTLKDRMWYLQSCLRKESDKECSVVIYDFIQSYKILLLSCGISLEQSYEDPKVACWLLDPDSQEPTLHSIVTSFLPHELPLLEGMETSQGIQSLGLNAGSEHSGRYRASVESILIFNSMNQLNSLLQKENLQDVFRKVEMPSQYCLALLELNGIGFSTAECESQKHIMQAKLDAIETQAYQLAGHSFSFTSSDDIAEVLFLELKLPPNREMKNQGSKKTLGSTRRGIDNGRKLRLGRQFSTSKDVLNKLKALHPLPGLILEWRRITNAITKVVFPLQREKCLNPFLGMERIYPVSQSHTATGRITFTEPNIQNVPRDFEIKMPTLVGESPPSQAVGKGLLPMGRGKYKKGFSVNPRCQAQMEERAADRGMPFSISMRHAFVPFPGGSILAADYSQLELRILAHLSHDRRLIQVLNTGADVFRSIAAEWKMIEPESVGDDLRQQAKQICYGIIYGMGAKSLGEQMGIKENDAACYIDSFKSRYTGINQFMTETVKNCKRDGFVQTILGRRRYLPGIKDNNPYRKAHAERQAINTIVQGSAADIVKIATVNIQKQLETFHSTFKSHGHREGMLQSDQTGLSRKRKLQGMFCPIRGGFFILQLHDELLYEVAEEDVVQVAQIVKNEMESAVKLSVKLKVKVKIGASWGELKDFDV
Method in brief: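 E. coli-expressed human Polθ polymerase domain (aa1820-2590) on annealed DNA II Short/Long primer-template (1.2:1), in 25 mM Tris pH 7.5, NaCl, 5% glycerol, 0.01% Triton X-100, 0.1 mg/ml BSA, 1 mM DTT, 1% DMSO. EDTA-quenched timepoints to 180 min, PicoGreen fluorescence. Initial rates vs inhibitor concentration fitted four-parameter for KI.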

Ki [nM]	Structure (SMILES)
0.969	Cc1cc(C(F)(F)F)cc(N2C(=O)C[C@@H]3CN(CCN4CC[C@H](C(=O)N(C)C)C4)c4c(C)cccc4N(C)C(=O)[C@H]32)n1 [Example 72, (S)-1-(2-((3aR,11aS)-6,10-Dimethyl-1-(6-methyl-4-(trifluoromethyl)pyridin-2-yl)-2,11-dioxo-1,2,3,3a,4,10,11,11a-octahydro-5H-benzo[b]pyrrolo[2,3-f][1,4]diazocin-5-yl)ethyl)-N,N-dimethylpyrrolidine-3-carboxamide]
0.458	Cc1cc(C(F)(F)F)cc(N2C(=O)C[C@@H]3CN(Cc4cc5n(n4)CCN(C)C5)c4c(Cl)cccc4N(C)C(=O)[C@H]32)n1 [Example 76, (3aR,11aS)-6-Chloro-10-methyl-5-((5-methyl-4,5,6,7-tetrahydropyrazolo[1,5-a]pyrazin-2-yl)methyl)-1-(6-methyl-4-(trifluoromethyl)pyridin-2-yl)-1,3a,4,5,10,11a-hexahydro-2H-benzo[b]pyrrolo[2,3-f][1,4]diazocine-2,11(3H)-dione]
11.3	Cc1cc(C(F)(F)F)cc(N2C(=O)C[C@@H]3CN(CC4CCNCC4)c4c(F)cccc4N(C)C(=O)[C@H]32)n1 [Example 77, (3aR,11aS)-6-Fluoro-10-methyl-1-(6-methyl-4-(trifluoromethyl)pyridin-2-yl)-5-(piperidin-4-ylmethyl)-1,3a,4,5,10,11a-hexahydro-2H-benzo[b]pyrrolo[2,3-f][1,4]diazocine-2,11(3H)-dione Hydrochloride]
1	Cc1cc(C(F)(F)F)cc(N2C(=O)C[C@@H]3CN(Cc4nc5n(c4F)CCN(C)C5)c4c(Cl)cccc4N(C)C(=O)[C@H]32)n1 [Example 81, (3aR,11aS)-6-Chloro-5-((3-fluoro-7-methyl-5,6,7,8-tetrahydroimidazo[1,2-a]pyrazin-2-yl)methyl)-10-methyl-1-(6-methyl-4-(trifluoromethyl)pyridin-2-yl)-1,3a,4,5,10,11a-hexahydro-2H-benzo[b]pyrrolo[2,3-f][1,4]diazocine-2,11(3H)-dione hydrochloride]
0.622	Cc1cc(C(F)(F)F)cc(N2C(=O)C[C@@H]3CN(CC4CCN(C5COC5)CC4)c4c(Cl)cccc4N(C)C(=O)[C@H]32)n1 [Example 85, (3aR,11aS)-6-Chloro-10-methyl-1-(6-methyl-4-(trifluoromethyl)pyridin-2-yl)-5-((1-(oxetan-3-yl)piperidin-4-yl)methyl)-1,3a,4,5,10,11a-hexahydro-2H-benzo[b]pyrrolo[2,3-f][1,4]diazocine-2,11(3H)-dione]
1.3	Cc1cc(C(F)(F)F)cc(N2C(=O)C[C@@H]3CN(CC4CCN(CCO)CC4)c4c(C)cccc4N(C)C(=O)[C@H]32)n1 [Example 88, (3aR,11aS)-5-((1-(2-Hydroxyethyl)piperidin-4-yl)methyl)-6,10-dimethyl-1-(6-methyl-4-(trifluoromethyl)pyridin-2-yl)-1,3a,4,5,10,11a-hexahydro-2H-benzo[b]pyrrolo[2,3-f][1,4]diazocine-2,11(3H)-dione]

Further lines, the compound ahead of its results:

Structure (SMILES)	Ki [nM]
Cc1cc(C(F)(F)F)cc(N2C(=O)C[C@@H]3CN(CCN4CC[C@@H](C(=O)N(C)C)C4)c4c(C)cccc4N(C)C(=O)[C@H]32)n1 [Example 73, (R)-1-(2-((3aR,11aS)-6,10-Dimethyl-1-(6-methyl-4-(trifluoromethyl)pyridin-2-yl)-2,11-dioxo-1,2,3,3a,4,10,11,11a-octahydro-5H-benzo[b]pyrrolo[2,3-f][1,4]diazocin-5-yl)ethyl)-N,N-dimethylpyrrolidine-3-carboxamide]	8.12
CC(=O)N1CCN(CCN2C[C@H]3CC(=O)N(c4cc(C(F)(F)F)cc(C)n4)[C@@H]3C(=O)N(C)c3cccc(C)c32)[C@@H](C)C1 [Example 74, (3aR,11aS)-5-(2-((S)-4-Acetyl-2-methylpiperazin-1-yl)ethyl)-6,10-dimethyl-1-(6-methyl-4-(trifluoromethyl)pyridin-2-yl)-1,3a,4,5,10,11a-hexahydro-2H-benzo[b]pyrrolo[2,3-f][1,4]diazocine-2,11(3H)-dione]	1.21
Cc1cc(C(F)(F)F)cc(N2C(=O)C[C@@H]3CN(CCN4CCN5C(=O)COC[C@H]5C4)c4c(C)cccc4N(C)C(=O)[C@H]32)n1 [Example 75, (3aR,11aS)-6,10-Dimethyl-1-(6-methyl-4-(trifluoromethyl)pyridin-2-yl)-5-(2-((R)-4-oxohexahydropyrazino[2,1-c][1,4]oxazin-8(1H)-yl)ethyl)-1,3a,4,5,10,11a-hexahydro-2H-benzo[b]pyrrolo[2,3-f][1,4]diazocine-2,11(3H)-dione]	1.81
Cc1cc(C(F)(F)F)cc(N2C(=O)C[C@@H]3CN(CC4CCNCC4)c4c(Cl)cccc4N(C)C(=O)[C@H]32)n1 [Example 78, (3aR,11aS)-6-Chloro-10-methyl-1-(6-methyl-4-(trifluoromethyl)pyridin-2-yl)-5-(piperidin-4-ylmethyl)-1,3a,4,5,10,11a-hexahydro-2H-benzo[b]pyrrolo[2,3-f][1,4]diazocine-2,11(3H)-dione]	1.1
Cc1cc(C(F)(F)F)cc(N2C(=O)C[C@@H]3CN(CC4CCN(C)CC4)c4c(C)cccc4N(C)C(=O)[C@H]32)n1 [Example 79, (3aR,11aS)-6,10-Dimethyl-1-(6-methyl-4-(trifluoromethyl)pyridin-2-yl)-5-((1-methylpiperidin-4-yl)methyl)-1,3a,4,5,10,11a-hexahydro-2H-benzo[b]pyrrolo[2,3-f][1,4]diazocine-2,11(3H)-dione]	1.36
Cc1cc(C(F)(F)F)cc(N2C(=O)C[C@@H]3CN(Cc4cn5c(n4)CNCC5)c4c(C)cccc4N(C)C(=O)[C@H]32)n1 [Example 80, (3aR,11aS)-6,10-Dimethyl-1-(6-methyl-4-(trifluoromethyl)pyridin-2-yl)-5-((5,6,7,8-tetrahydroimidazo[1,2-a]pyrazin-2-yl)methyl)-1,3a,4,5,10,11a-hexahydro-2H-benzo[b]pyrrolo[2,3-f][1,4]diazocine-2,11(3H)-dione]	0.186
Cc1cc(C(F)(F)F)cc(N2C(=O)C[C@@H]3CN(Cc4nc5n(c4C)CCN(C)C5)c4c(C)cccc4N(C)C(=O)[C@H]32)n1 [Example 82, (3aR,11aS)-5-((3,7-Dimethyl-5,6,7,8-tetrahydroimidazo[1,2-a]pyrazin-2-yl)methyl)-6,10-dimethyl-1-(6-methyl-4-(trifluoromethyl)pyridin-2-yl)-1,3a,4,5,10,11a-hexahydro-2H-benzo[b]pyrrolo[2,3-f][1,4]diazocine-2,11(3H)-dione]	0.431
Cc1cc(C(F)(F)F)cc(N2C(=O)C[C@@H]3CN(Cc4nc5n(c4F)CCN(C)C5)c4c(C)cccc4N(C)C(=O)[C@H]32)n1 [Example 83, (3aR,11aS)-5-((3-Fluoro-7-methyl-5,6,7,8-tetrahydroimidazo[1,2-a]pyrazin-2-yl)methyl)-6,10-dimethyl-1-(6-methyl-4-(trifluoromethyl)pyridin-2-yl)-1,3a,4,5,10,11a-hexahydro-2H-benzo[b]pyrrolo[2,3-f][1,4]diazocine-2,11(3H)-dione]	0.254
Cc1cc(C(F)(F)F)cc(N2C(=O)C[C@@H]3CN(CC4CCN(C)CC4)c4c(Cl)cccc4N(C)C(=O)[C@H]32)n1 [Example 84, (3aR,11aS)-6-Chloro-10-methyl-1-(6-methyl-4-(trifluoromethyl)pyridin-2-yl)-5-((1-methylpiperidin-4-yl)methyl)-1,3a,4,5,10,11a-hexahydro-2H-benzo[b]pyrrolo[2,3-f][1,4]diazocine-2,11(3H)-dione]	2.54
Cc1cc(C(F)(F)F)cc(N2C(=O)C[C@@H]3CN(CC4CCN(CCF)CC4)c4c(Cl)cccc4N(C)C(=O)[C@H]32)n1 [Example 86, (3aR,11aS)-6-Chloro-5-((1-(2-fluoroethyl)piperidin-4-yl)methyl)-10-methyl-1-(6-methyl-4-(trifluoromethyl)pyridin-2-yl)-1,3a,4,5,10,11a-hexahydro-2H-benzo[b]pyrrolo[2,3-f][1,4]diazocine-2,11(3H)-dione]	1.3
COCCN1CCC(CN2C[C@H]3CC(=O)N(c4cc(C(F)(F)F)cc(C)n4)[C@@H]3C(=O)N(C)c3cccc(Cl)c32)CC1 [Example 87, (3aR,11aS)-6-Chloro-5-((1-(2-methoxyethyl)piperidin-4-yl)methyl)-10-methyl-1-(6-methyl-4-(trifluoromethyl)pyridin-2-yl)-1,3a,4,5,10,11a-hexahydro-2H-benzo[b]pyrrolo[2,3-f][1,4]diazocine-2,11(3H)-dione]	1.48

— US20260124214A1, “HETEROCYCLIC COMPOUNDS FOR USE IN THE TREATMENT OF CANCER” (ARTIOS PHARMA LIMITED, priority 2021, published 2026)
